Data as given in patent US7084158B2, “Substituted propargylamines” (Bayer Cropscience S.A., priority 2001, dated 2006).

Test system: Heliothis virescens
Assay: Example B: tobacco budworm eggs on filter paper/insect diet, mortality
Format: in vivo
Set-up: key: compounds were considered to be active when, at a concentration of 500 ppm or less, they had an activity on the harmful organisms of 50% or more
Settings: 500 ppm or less; 24-hour-old eggs dipped, diet treated; after 6 days

Row | SMILES | effect on the eggs and hatched larvae (mortality)
1 | CC1CCN(CC#Cc2cccc(C(F)(F)F)c2)CC1 [Example 24] | active
2 | Cc1c(Cl)cccc1C#CCN1CCC(C)CC1 [Example 97] | active
3 | Cc1cc(Cl)ccc1C#CCN1CCC(C)CC1 [Example 100] | active
4 | CC1CCN(CC#Cc2ccc(-c3ccccc3)cc2)CC1 [Example 119] | active
5 | CC1CCN(CC#Cc2ccc(F)c(Cl)c2)CC1 [Example 124] | active
6 | CC1CCN(CC#Cc2ccnc(C(F)(F)F)n2)CC1 [Example 167] | active
7 | CC1CCN(CC#Cc2ccc(-c3cc(C(F)(F)F)ccc3Cl)cc2)CC1 [Example 171] | active
8 | CC1CCN(CC#Cc2ccc(-c3ccc(C(F)(F)F)cc3)cc2)CC1 [Example 172] | active
9 | CC1CCN(CC#Cc2ccc(-c3cccc(Cl)c3)cc2)CC1 [Example 173] | active
10 | CC1CCN(CC#Cc2ccc(-c3ccccc3Cl)cc2)CC1 [Example 174] | active
11 | CC1CCN(CC#Cc2ccc(-c3ccc(Cl)cc3Cl)cc2)CC1 [Example 176] | active
12 | CC1CCN(CC#Cc2ccc(-c3cc(F)cc([N+](=O)[O-])c3)cc2)CC1 [Example 177] | active
13 | CCOC(=O)c1cccc(-c2ccc(C#CCN3CCC(C)CC3)cc2)c1 [Example 178] | active
14 | COc1ccc(-c2ccc(C#CCN3CCC(C)CC3)cc2)cc1 [Example 181] | active
15 | CC1CCN(CC#Cc2ccc(-c3cccc(C(F)(F)F)c3)cc2)CC1 [Example 182] | active
16 | Cc1cc(C)nc(C#CCN2CCC(C)CC2)c1 [Example 201] | active
17 | CC1CCN(CC#Cc2ccc(Br)c(F)c2)CC1 [Example 207] | active
18 | CC(=O)c1ccc(C#CCN2CCC(C)CC2)s1 [Example 214] | active
19 | CC1CCN(CC#Cc2ccc(Br)s2)CC1 [Example 215] | active
20 | CC1CCN(CC#Cc2ccc(Cl)s2)CC1 [Example 216] | active
21 | CC1CCN(CC#Cc2cccc(-c3ccc(C(F)(F)F)cc3)c2)CC1 [Example 217] | active
22 | CC1CCN(CC#Cc2cccc(-c3cccc4ccccc34)c2)CC1 [Example 221] | active
23 | CC1CCN(CC#Cc2cccc(-c3ccc(Cl)cc3)c2)CC1 [Example 222] | active
24 | CC1CCN(CC#Cc2cccc(-c3cnc(Cl)c(Cl)c3)c2)CC1 [Example 224] | active

Row | SMILES | effect on the eggs and hatched larvae (mortality)
25 | CC1CCN(CC#Cc2cccc(-c3ccc(Cl)s3)c2)CC1 [Example 225] | active
26 | CC1CCN(CC#Cc2cccc(-c3ccc(C#N)cc3)c2)CC1 [Example 226] | active
27 | CC1CCN(CC#Cc2ccc(-c3cccc(C(F)(F)F)c3)s2)CC1 [Example 229] | active
28 | Cc1cc(C#CCN2CCC(C)CC2)sc1-c1ccc(F)cc1 [Example 232] | active
29 | Cc1ccc(-c2sc(C#CCN3CCC(C)CC3)cc2C)cc1 [Example 236] | active
30 | Cc1cc(C#CCN2CCC(C)CC2)sc1-c1ccc(Cl)cc1 [Example 239] | active
31 | CC1CCN(CC#Cc2ccc(-c3ccccc3)s2)CC1 [Example 240] | active
32 | Cc1ccc(-c2ccc(C#CCN3CCC(C)CC3)s2)cc1 [Example 241] | active
33 | CC1CCN(CC#Cc2ccc(-c3ccc(OC(F)(F)F)cc3)s2)CC1 [Example 244] | active
34 | Cc1cccc(-c2ccc(C#CCN3CCC(C)CC3)s2)c1 [Example 246] | active
35 | CC1CCN(CC#Cc2ccc(-c3cccc(Cl)c3)s2)CC1 [Example 247] | active
36 | CCc1ccc(C#CCN2CCC(C)CC2)cc1F [Example 254] | active
37 | CC1CCN(CC#Cc2ccc(-c3cc(C(F)(F)F)cc(C(F)(F)F)c3)s2)CC1 [Example 271] | active
38 | CC1CCN(CC#Cc2ccc(-c3cc(Cl)cc(Cl)c3)s2)CC1 [Example 273] | active
39 | CC1CCN(CC#Cc2cc(Cl)c(OC(F)(F)C(F)Cl)c(Cl)c2)CC1 (stereo not drawn) [Example 283] | active
40 | Cc1ccc(C#CCN2CCC(C)CC2)cc1C(F)(F)F [Example 284] | active
41 | CC1CCN(CC#Cc2ccc(F)c(C(F)(F)F)c2)CC1 [Example 285] | active
42 | CC1CCN(CC#Cc2ccc(C#N)c(Cl)c2)CC1 [Example 289] | active
43 | CC1CCN(CC#Cc2ccc(C=NOCc3ccccc3)s2)CC1 [Example 292] | active
44 | CC1CCN(CC#Cc2c(Cl)cc(C(F)(F)F)cc2Cl)CC1 [Example 295] | active
45 | CC1CCN(CC#Cc2ccc(C=NOCc3ccc(Cl)cc3Cl)s2)CC1 [Example 296] | active
46 | CC1CCN(CC#Cc2ccc(Cl)cc2Cl)CC1.Cl [Example 1000] | active
47 | CC1CCN(CC#Cc2cc(Cl)cc(Cl)c2)CC1.Cl [Example 1011] | active
48 | CC1CCN(CC#Cc2cc(C(F)(F)F)cc(C(F)(F)F)c2)CC1.O=C(O)/C=C\C(=O)O [Example 1056] | active

Test system: Diabrotica undecimpunctata
Assay: Example C: corn rootworm eggs with maize corn, mortality
Format: in vivo
Set-up: key: compounds were considered to be active when, at a concentration of 500 ppm or less, they had an activity on the harmful organisms of 50% or more
Settings: 500 ppm or less; 4-5-day-old eggs; after 6 days

Row | SMILES | effect on the eggs and hatched larvae (mortality)
49 | CC1CCCN(CC#Cc2cc(C(F)(F)F)cc(C(F)(F)F)c2)C1 (stereo not drawn) [Example 31] | active
50 | CC1CCN(CC#Cc2ccc(C(F)(F)F)cn2)CC1 [Example 58] | active
51 | Cc1cc(C)nc(C#CCN2CCC(C)CC2)c1 [Example 201] | active
52 | FC(F)(F)c1cc(C#CCN2CCC(C(F)(F)F)CC2)cc(C(F)(F)F)c1 [Example 205] | active
53 | CC1CCN(CC#Cc2ccc(Br)c(F)c2)CC1 [Example 207] | active
54 | COc1ccc(-c2ccc(C#CCN3CCC(C)CC3)cc2F)cc1 [Example 231] | active
55 | CC1CCN(CC#Cc2cc(C(F)(F)F)cc(C(F)(F)F)c2)CC1C (stereo not drawn) [Example 267] | active
56 | FC(F)(F)c1cc(C#CCN2CCCC(C(F)(F)F)C2)cc(C(F)(F)F)c1 (stereo not drawn) [Example 281] | active
57 | FC(F)(F)c1cc(C#CCN2CCCC(C(F)(F)F)C2)nc(C(F)(F)F)c1 (stereo not drawn) [Example 282] | active
58 | CC1CCN(CC#Cc2c(Cl)cc(C(F)(F)F)cc2Cl)CC1 [Example 295] | active
59 | FC(F)(F)c1cccc(C#CCN2CCCC(C(F)(F)F)C2)c1 (stereo not drawn) [Example 297] | active
60 | CC1(C)CCCN(CC#Cc2cc(C(F)(F)F)cc(C(F)(F)F)c2)C1.Cl [Example 1001] | active
61 | Cl.FC(F)(F)c1cc(C#CCN2CCC(C(F)(F)F)CC2)nc(C(F)(F)F)c1 [Example 1050] | active
62 | CC1CCN(CC#Cc2cc(C(F)(F)F)cc(C(F)(F)F)c2)CC1.O=C(O)/C=C\C(=O)O [Example 1056] | active
63 | CCS(=O)(=O)O.Cc1cc(C(F)(F)F)cc(C#CCN2CCC(C)CC2)n1 [Example 1064] | active
64 | Cc1cc(C#CCN2CCC(C)CC2)cc(C(F)(F)F)c1.Cl [Example 1069] | active

Test system: Aedes aegypti
Assay: Example AG: microtiter plate, yellow fever mosquito larvicidal activity
Format: in vivo
Set-up: key: compounds were considered to be active when, at a concentration of 500 ppm or less, they had an activity on the harmful organisms of 50% or more
Settings: 500 ppm or less, after 3 days

Row | SMILES | larvicidal activity
65 | Cc1cc(C#CCN2CCC(C)CC2)sc1Br [Example 213] | active
66 | CC1CCN(CC#Cc2ccc(Br)s2)CC1 [Example 215] | active
67 | CC1CCN(CC#Cc2ccc(Cl)s2)CC1 [Example 216] | active
68 | CC1CCN(CC#Cc2cccc(-c3cc(C(F)(F)F)cc(C(F)(F)F)c3)c2)CC1 [Example 218] | active
69 | CC1CCN(CC#Cc2cccc(-c3cccc(Cl)c3)c2)CC1 [Example 219] | active
70 | CC1CCN(CC#Cc2ccc(-c3ccc(C(F)(F)F)cc3)s2)CC1 [Example 242] | active
71 | CC1CCN(CC#Cc2ccc(-c3ccc(OC(F)(F)F)cc3)s2)CC1 [Example 244] | active
72 | Cc1ccc(-c2ccc(C#CCN3CCC(C)CC3)cc2F)cc1 [Example 248] | active
73 | CC1CCN(CC#Cc2ccc(-c3ccc(F)c(Cl)c3)c(F)c2)CC1 [Example 249] | active
74 | CCc1ccc(C#CCN2CCC(C)CC2)cc1F [Example 254] | active
75 | CC1CCN(CC#Cc2cc(C(F)(F)F)cc(C(F)(F)F)c2)CC1C (stereo not drawn) [Example 267] | active
76 | CC1CCN(CC#Cc2ccc(C#N)c(Cl)c2)CC1 [Example 289] | active
77 | CC1CCN(CC#Cc2ccc(C=NOCc3ccccc3)s2)CC1 [Example 292] | active
78 | Cc1ccc(C#CCN2CCC(C)CC2)s1 [Example 293] | active
79 | Cc1cc(C)nc(C#CCN2CCC(C)CC2)c1 [Example 294] | active
80 | CCS(=O)(=O)O.Cc1cc(C(F)(F)F)cc(C#CCN2CCC(C)CC2)n1 [Example 1064] | active
81 | Cc1cc(C#CCN2CCC(C)CC2)cc(C(F)(F)F)c1.Cl [Example 1069] | active
